Molecular target: T1, hP2X4 (Homo sapiens, UniProt Q99571)
T1 construct: expressed in transfected cells; host or cells: HEK-293 mito-Photina, clone 2a/4
T1 sequence (Q99571 1-388): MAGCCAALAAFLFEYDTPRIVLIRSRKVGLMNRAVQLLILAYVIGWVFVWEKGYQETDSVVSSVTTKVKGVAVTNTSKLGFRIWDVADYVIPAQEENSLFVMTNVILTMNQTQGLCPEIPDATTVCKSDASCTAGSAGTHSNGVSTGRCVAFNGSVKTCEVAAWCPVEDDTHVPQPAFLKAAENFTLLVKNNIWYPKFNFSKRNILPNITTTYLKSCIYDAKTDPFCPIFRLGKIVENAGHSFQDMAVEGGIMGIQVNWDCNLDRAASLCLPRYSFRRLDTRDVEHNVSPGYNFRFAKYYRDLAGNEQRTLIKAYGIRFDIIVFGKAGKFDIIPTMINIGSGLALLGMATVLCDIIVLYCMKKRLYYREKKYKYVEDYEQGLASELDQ
Assay: Human P2X4 HEK Cell Electrophysiology Assay B (QPatch)
Assay type: cell-based
Details: ATP 5 microM, -90 mV; read-out: Human P2X4 HEK Cells (QPatch Electrophysiology) avg IC50
Method: Cell culture conditions: HEK-293 mito-Photina pcDNA3(neo-)/pPURO N/pcDNA3_P2RX4, clone 2a/4 (HEK-293 mito-Photina/hP2RX4) cells were cultured in EMEM Minimum Essential Medium Eagle with Earl's salts Balanced Salt Solution (BioWhittaker cat. BE12-125F) supplemented with 5 mL of 200 mM Ultraglutaminel (BioWhittaker cat. BE17-605E/U1), 5 mL of 100× Penicillin/Streptomycin (BioWhittaker cat. DE17-602E; final concentration 1%), 4 mL of 50 mg/mL G418 (Sigma cat. G8168-100 mL; final concentration 400 μg/mL), 10 μL of 10 mg/mL Puromicin (InvivoGen cat. ant-pr-1; final concentration 0.2 μg/mL) and 50 mL of Fetal Bovine Serum (Sigma cat. F7524; final concentration 10%).
Experimentalprotocol: HEK-293 cell lines are seeded 72 or 96 hours before experiment, at a concentration of 5 or 2.5 million cells, respectively onto a T225 flask. Just before the experiments cells are washed twice with D-PBS w/o Ca2+/Mg2+(Euroclone cat. ECB4004L) and detached from the flask with trypsin-EDTA (Sigma, cat. T4174 diluted 1/10). Cells are then re-suspended in the suspension solution: 25 mL EX-CELL ACF CHO medium (Sigma, cat. C5467); 0.625 mL HEPES (BioWhittaker, cat. BE17-737E); 0.25 mL of 100× Penicillin/Streptomycin (BioWhittaker, cat. DE17-602E), 0.1 mL of Soybean Trypsin Inhibitor 10 mg/mL (Sigma, cat. T6522) and placed on the QPatch 16X.
Compound preparation and storage: Compound stock solutions (10 mM; 100% DMSO; stored at −20° C.) were used. Fresh solutions from stock (1 or 3 mM, 100% DMSO) were prepared just before the experiments (0.1% final DMSO concentration).
Patch clamp analysis with QPatch16X (FIG. 1): Standard whole-cell voltage clamp experiments are performed at room temperature using the multihole technology.
For the voltage clamp experiments on hP2X4, data are sampled at 2 KHz. After establishment of the seal and the passage in the whole cell configuration, the cells are held at −90 mV and the hP2X4 current is evoked by the agonist in the absence (vehicle period, i.e. 0.1% DMSO) or in the presence of the compound under investigation at increasing concentrations; see the application protocol in FIG. 1.
Output: the maximum inward current induced by the agonist (ATP 5 microM).
The intracellular solution contained (mM) 135 CsF, 10 NaCl, 1 EGTA, 10 HEPES (pH 7.2 with CsOH) whereas the extracellular solution (mM) 145 NaCl, 4 KCl, 0.5 MgCl2, 1 CaCl2, […], 10 Glucose (pH 7.4 with NaOH).
For data collection, the Sophion software was used and the analysis was performed off-line using Excel and GraphPad Prism.
When possible, i.e. when the % of inhibition with the highest concentration tested was more than 50%, the dose-response curves data were fitted with the following equation:
[X is log of concentration; Y is normalized response (100% down to 0%, decreasing as X increases); Log IC50 same log units as X; HillSlope is unitless slope factor or hill slope]

Row | IC50 [nM] | Structure (SMILES)
1 | 157 | NS(=O)(=O)c1cc(NC(=O)Cc2ccccc2Cl)cnc1-n1cc(C(F)(F)F)cn1 [Example 380, 2-(2-Chlorophenyl)-N-{5-sulfamoyl-6-[4-(trifluoromethyl)-1H-pyrazol-1-yl]pyridin-3-yl}acetamide]
2 | 278 | NS(=O)(=O)c1cc(NC(=O)Cc2ccccc2Cl)ccc1-n1cc(C(F)(F)F)cn1 [Example 19, 2-(2-Chlorophenyl)-N-{3-sulfamoyl-4-[4-(trifluoromethyl)-1H-pyrazol-1-yl]phenyl}acetamide]
3 | 51 | NS(=O)(=O)c1cc(NC(=O)Cc2ccccc2Cl)ccc1-c1cnn(C(F)F)c1 [Example 326, 2-(2-Chlorophenyl)-N-{4-[1-(difluoromethyl)-1H-pyrazol-4-yl]-3-sulfamoylphenyl}acetamide]
4 | 222 | NS(=O)(=O)c1cc(NC(=O)Cc2ccccc2Cl)ccc1-n1cc(F)cn1 [Example 26, 2-(2-Chlorophenyl)-N-[4-(4-fluoro-1H-pyrazol-1-yl)-3-sulfamoylphenyl]acetamide]
